Assay results taken from patent US20260092919A1, “REAGENT FOR MEASURING TYROSINE KINASE ACTIVITY, AND USE THEREOF” (HILO CO. LTD., priority 2022, published 2026).

How the values were obtained:
[1] = molecular target: T1, EGFR tyrosine kinase activity in A549 cells (Homo sapiens, UniProt P00533); experiment: FRET efficiency in A549 cells expressing Pickles_2.34NES; format: cell-based
T1 construct: pFX-Pickles_2.34NES was introduced into A549 cells and H1299 cells; endogenous in cells; host or cells: A549
Procedure: (§1) Fluorescence images of cells were acquired using an IX81 research-grade inverted microscope (Olympus) equipped with a stage incubator (LCI), a motorized XY-stage (Chuo Precision Industrial), and a CoolSNAP Myo cooled charge-coupled device (CCD) camera (Nippon Roper) under the control of MetaMorph software (Molecular Devices Japan). […] White light from a SOLA light engine (Lumencore) was attenuated by a 20% neutral density filter and used as excitation light after interference by each filter. Images were captured using a 60× oil immersion objective lens (numerical aperture 1.40) (4×4 binning, fluorescence images: exposure time 200 msec, differential interference contrast images: exposure time 20 msec).
(§2) After 24 hours, the medium was changed to phenol red-free MEM-F12 medium, and the cells were serum-starved for 4 hours. Time-lapse fluorescence imaging was then initiated, with FRET, CFP, and DIC images acquired every 30 seconds. Cells were stimulated by adding EGF to a final concentration of 50 ng/ml at 10 minutes after starting imaging, and imaging was continued for another 50 minutes. Following background subtraction, FRET efficiency was calculated as the ratio of cellular fluorescence intensity (FRET/CFP) from each channel at each time point.

[2] = test system: EGFR tyrosine kinase activity in H1299 cells; experiment: FRET efficiency in H1299 cells expressing Pickles_2.34NES
Procedure: as §1, §2

[3] = molecular target: EGFR tyrosine kinase activity in HCC827 cells (Homo sapiens, UniProt P00533, DEL746-750); experiment: FRET efficiency in HCC827 cells expressing Pickles biosensor
Procedure: as §1, §2

[4] = test system: EGFR tyrosine kinase activity; experiment: FRET efficiency (FRET/CFP) time-lapse imaging in Cos-1 cells expressing biosensor; format: cell-based, African green monkey
Procedure: as §1, §2

| Substance | change in FRET efficiency upon EGF stimulation [1] | increase in FRET efficiency upon EGF stimulation [2] | response of FRET efficiency to EGF stimulation compared to Pickles_2.34 [3] | change in FRET efficiency with HGF stimulation ([4]; Cos-1 cells expressing Pickles, HGF instead of EGF, same amount) | increase in FRET efficiency upon EGF stimulation ([4]; Cos-1 cells expressing the biosensor, EGF 50 ng/ml) |
| --- | --- | --- | --- | --- | --- |
| Pickles_2.34NES: SEQ ID NO: 7: Pickles_2.34 with the NES from protein kinase A inhibitor added to its N-terminus | increased significantly | slight | higher sensitivity |  |  |
| Pickles_2.34: SEQ ID NO: 6: m1Venus, CrkL residues 1-222 with D94A, cp173-ECFP FRET biosensor |  |  |  | did not change | 77.7% |
